Data taken from ChEMBL document CHEMBL4184177, “Synthesis and bioevaluation study of novel N-methylpicolinamide and thienopyrimidine derivatives as selectivity c-Met kinase inhibitors” (Bioorg Med Chem, 2018).
pIC50: −log10 of the molar value. Activity calls are given as the source filed them. No cut-off for these calls is given here.

Assays:
HepG2 [1] = assay: Induction of apoptosis in human HepG2 cells assessed as late apoptotic cells at 0.47 uM by Annexin V-FITC/propidium iodide staining based flow cytometry (reference value: 2.07%); assay type: functional
HepG2 [2] = assay: Induction of morphological changes in human HepG2 cells assessed as cell shrinkage at 0.47 uM by acridine orange dye based inverted microscopy and fluorescence microscopic method; assay type: functional
HepG2 [3] = assay: cells; settings: Homo sapiens, HepG2, 72 h
Description: Cytotoxicity against human HepG2 cells after 72 hrs by MTT assay

[4] = target: Hepatocyte growth factor receptor (Homo sapiens, UniProt P08581); assay: Inhibition of c-Met (unknown origin) using FAM-labeled peptide substrate after 10 mins by mobility shift assay
Chain of Hepatocyte growth factor receptor (P08581 whole entry): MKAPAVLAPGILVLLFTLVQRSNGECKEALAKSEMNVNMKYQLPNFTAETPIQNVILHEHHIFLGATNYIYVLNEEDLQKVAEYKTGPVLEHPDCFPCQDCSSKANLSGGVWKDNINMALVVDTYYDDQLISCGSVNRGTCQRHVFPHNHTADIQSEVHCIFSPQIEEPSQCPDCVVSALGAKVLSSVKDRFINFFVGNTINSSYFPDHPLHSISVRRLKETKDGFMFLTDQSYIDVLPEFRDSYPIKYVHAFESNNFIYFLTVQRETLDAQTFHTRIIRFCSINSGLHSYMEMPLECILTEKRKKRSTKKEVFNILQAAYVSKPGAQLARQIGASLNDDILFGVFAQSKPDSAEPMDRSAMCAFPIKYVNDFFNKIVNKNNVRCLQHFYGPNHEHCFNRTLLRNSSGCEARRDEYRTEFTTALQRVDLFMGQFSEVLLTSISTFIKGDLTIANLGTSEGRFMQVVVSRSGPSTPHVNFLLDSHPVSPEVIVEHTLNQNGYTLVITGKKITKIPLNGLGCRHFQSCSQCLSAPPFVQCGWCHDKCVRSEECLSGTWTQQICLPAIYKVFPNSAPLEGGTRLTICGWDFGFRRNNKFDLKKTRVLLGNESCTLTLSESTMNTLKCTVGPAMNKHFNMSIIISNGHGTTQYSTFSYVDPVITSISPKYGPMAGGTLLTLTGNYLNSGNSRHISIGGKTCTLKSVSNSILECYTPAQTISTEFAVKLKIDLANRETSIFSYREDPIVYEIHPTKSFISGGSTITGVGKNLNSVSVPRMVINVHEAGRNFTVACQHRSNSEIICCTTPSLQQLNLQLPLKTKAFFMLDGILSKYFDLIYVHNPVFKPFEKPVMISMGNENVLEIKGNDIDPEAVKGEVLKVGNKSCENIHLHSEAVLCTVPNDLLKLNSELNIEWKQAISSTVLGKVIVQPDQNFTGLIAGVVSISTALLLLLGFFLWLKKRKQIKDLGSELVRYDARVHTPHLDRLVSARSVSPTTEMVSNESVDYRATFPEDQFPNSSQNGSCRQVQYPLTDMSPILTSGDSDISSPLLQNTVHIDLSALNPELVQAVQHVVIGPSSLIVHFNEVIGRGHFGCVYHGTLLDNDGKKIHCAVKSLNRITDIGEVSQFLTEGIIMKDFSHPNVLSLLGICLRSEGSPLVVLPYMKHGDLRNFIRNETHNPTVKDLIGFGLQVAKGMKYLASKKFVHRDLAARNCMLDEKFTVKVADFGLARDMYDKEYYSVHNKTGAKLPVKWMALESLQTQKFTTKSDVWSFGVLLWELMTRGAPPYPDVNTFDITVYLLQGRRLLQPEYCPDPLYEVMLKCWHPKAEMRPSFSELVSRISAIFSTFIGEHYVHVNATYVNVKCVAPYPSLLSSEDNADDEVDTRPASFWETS

HepG2 [5] = assay: Induction of apoptosis in human HepG2 cells assessed as live cells at 0.23 uM by Annexin V-FITC/propidium iodide staining based flow cytometry (reference value: 96.54%); assay type: functional
MCF7 [6] = assay: cells; settings: Homo sapiens, MCF7, 72 h
Description: Cytotoxicity against human MCF7 cells after 72 hrs by MTT assay

HepG2 [7] = assay: Induction of apoptosis in human HepG2 cells assessed as live cells at 0.94 uM by Annexin V-FITC/propidium iodide staining based flow cytometry (reference value: 96.54%); assay type: functional
[8] = target: Vascular endothelial growth factor receptor 2 (Homo sapiens, UniProt P35968); assay: Inhibition of VEGFR2 (unknown origin) using FAM-labeled peptide substrate after 10 mins by mobility shift assay
Chain of Vascular endothelial growth factor receptor 2 (P35968 whole entry): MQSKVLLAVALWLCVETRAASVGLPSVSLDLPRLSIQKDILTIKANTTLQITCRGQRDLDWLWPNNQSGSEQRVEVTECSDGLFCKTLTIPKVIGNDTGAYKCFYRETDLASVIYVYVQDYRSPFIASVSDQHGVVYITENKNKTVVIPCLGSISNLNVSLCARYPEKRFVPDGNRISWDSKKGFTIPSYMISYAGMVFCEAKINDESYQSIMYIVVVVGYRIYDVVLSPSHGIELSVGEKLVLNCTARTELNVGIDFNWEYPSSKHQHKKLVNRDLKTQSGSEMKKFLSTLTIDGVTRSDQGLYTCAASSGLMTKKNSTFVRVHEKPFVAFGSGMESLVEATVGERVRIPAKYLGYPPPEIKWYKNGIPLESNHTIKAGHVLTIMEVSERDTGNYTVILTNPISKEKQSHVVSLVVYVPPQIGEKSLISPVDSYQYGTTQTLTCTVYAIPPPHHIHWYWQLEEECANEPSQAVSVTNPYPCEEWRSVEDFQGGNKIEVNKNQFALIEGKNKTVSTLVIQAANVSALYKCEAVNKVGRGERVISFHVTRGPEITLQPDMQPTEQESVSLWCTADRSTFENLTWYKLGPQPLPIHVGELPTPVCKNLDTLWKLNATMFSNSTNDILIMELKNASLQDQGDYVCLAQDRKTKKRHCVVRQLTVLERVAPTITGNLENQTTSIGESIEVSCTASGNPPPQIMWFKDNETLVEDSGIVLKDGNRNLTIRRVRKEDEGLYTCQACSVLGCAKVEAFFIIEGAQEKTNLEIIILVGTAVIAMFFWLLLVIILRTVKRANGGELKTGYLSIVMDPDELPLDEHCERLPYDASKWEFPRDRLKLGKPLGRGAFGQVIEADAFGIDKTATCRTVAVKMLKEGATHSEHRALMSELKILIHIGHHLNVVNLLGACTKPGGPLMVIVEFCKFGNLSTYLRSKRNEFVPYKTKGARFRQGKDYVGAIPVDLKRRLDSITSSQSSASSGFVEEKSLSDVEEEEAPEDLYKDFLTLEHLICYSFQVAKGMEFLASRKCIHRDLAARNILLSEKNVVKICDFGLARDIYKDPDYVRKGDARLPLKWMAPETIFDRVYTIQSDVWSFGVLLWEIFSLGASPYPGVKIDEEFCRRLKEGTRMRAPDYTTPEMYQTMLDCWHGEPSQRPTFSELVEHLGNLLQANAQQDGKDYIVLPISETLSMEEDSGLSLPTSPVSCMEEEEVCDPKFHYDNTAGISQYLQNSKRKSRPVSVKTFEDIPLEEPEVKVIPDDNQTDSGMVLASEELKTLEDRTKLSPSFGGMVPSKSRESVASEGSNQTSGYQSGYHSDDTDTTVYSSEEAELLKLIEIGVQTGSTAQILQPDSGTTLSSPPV

[9] = target: Epidermal growth factor receptor (Homo sapiens, UniProt P00533); assay: Inhibition of EGFR (unknown origin) using FAM-labeled peptide substrate after 10 mins by mobility shift assay
Chain of Epidermal growth factor receptor (P00533 whole entry): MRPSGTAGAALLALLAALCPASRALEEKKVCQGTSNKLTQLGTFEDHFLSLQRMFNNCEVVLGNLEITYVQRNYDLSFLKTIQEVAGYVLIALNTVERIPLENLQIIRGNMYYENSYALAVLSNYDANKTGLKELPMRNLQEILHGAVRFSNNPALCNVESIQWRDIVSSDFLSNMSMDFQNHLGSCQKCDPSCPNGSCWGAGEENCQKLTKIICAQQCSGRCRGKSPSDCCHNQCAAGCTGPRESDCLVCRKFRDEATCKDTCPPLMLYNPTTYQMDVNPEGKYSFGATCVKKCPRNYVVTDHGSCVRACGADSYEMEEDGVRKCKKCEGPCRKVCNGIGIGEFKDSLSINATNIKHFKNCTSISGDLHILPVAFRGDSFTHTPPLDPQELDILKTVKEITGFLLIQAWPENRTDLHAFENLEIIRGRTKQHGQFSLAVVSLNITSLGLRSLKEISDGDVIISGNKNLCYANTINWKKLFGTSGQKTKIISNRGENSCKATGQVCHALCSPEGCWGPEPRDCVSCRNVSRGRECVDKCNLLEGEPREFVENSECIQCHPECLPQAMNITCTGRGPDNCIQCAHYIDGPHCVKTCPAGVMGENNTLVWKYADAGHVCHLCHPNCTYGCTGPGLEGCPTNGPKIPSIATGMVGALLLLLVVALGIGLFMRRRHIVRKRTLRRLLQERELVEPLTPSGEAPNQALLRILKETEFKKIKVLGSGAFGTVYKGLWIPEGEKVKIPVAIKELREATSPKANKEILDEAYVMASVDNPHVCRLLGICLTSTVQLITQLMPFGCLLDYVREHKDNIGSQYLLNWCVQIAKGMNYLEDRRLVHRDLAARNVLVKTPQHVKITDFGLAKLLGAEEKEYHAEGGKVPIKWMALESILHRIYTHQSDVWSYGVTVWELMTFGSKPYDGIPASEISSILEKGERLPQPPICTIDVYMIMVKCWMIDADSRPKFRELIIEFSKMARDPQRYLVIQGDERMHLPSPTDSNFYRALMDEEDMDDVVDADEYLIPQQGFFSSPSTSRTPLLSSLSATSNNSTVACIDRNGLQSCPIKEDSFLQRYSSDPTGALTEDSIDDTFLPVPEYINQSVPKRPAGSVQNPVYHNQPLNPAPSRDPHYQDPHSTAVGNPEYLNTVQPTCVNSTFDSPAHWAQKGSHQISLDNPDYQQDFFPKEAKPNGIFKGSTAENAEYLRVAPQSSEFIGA

[10] = target: T1, Receptor-type tyrosine-protein kinase FLT3 (Homo sapiens, UniProt P36888); assay: Inhibition of FLT3 (unknown origin) using FAM-labeled peptide substrate after 10 mins by mobility shift assay
T1 sequence (P36888 whole entry): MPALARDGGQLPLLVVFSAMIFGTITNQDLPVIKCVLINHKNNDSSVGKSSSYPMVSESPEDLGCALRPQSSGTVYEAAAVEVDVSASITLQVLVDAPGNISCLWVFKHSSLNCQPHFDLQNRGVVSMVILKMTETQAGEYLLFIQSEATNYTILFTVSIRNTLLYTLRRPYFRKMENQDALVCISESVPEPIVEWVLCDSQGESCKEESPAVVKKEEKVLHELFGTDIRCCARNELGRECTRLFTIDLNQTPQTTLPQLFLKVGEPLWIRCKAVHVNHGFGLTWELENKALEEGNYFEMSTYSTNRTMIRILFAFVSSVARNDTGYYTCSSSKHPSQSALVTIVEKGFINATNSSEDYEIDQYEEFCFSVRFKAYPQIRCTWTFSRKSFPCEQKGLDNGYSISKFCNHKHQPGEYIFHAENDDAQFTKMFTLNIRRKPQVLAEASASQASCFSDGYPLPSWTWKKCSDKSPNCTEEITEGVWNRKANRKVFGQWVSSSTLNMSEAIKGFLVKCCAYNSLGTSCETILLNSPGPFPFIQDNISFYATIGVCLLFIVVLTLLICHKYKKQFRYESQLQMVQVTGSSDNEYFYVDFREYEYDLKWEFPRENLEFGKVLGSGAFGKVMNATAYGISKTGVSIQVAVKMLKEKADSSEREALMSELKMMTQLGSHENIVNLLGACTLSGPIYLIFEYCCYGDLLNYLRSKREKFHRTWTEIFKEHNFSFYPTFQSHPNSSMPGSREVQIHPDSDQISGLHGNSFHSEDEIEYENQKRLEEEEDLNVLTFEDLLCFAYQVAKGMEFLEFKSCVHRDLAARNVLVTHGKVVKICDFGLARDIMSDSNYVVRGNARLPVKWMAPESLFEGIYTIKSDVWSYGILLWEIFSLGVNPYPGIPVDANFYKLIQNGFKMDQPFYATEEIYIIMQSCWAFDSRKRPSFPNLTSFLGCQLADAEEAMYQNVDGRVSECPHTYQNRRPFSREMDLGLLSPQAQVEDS

HepG2 [11] = assay: Induction of apoptosis in human HepG2 cells assessed as necrotic cells at 0.47 uM by Annexin V-FITC/propidium iodide staining based flow cytometry (reference value: 0.28%); assay type: functional
A549 = assay: Cytotoxicity against human A549 cells after 72 hrs by MTT assay; settings: A549, 72 h
HepG2 [12] = assay: Induction of apoptosis in human HepG2 cells assessed as late apoptotic cells at 0.94 uM by Annexin V-FITC/propidium iodide staining based flow cytometry (reference value: 2.07%); assay type: functional
HepG2 [13] = assay: Induction of apoptosis in human HepG2 cells assessed as early apoptotic cells at 0.94 uM by Annexin V-FITC/propidium iodide staining based flow cytometry (reference value: 1.11%); assay type: functional
HepG2 [14] = assay: Induction of apoptosis in human HepG2 cells assessed as late apoptotic cells at 0.23 uM by Annexin V-FITC/propidium iodide staining based flow cytometry (reference value: 2.07%); assay type: functional
HepG2 [15] = assay: Induction of morphological changes in human HepG2 cells assessed as chromatin condensation at 0.47 uM by acridine orange dye based inverted microscopy and fluorescence microscopic method; assay type: functional, cell-based
MCF7 [16] = assay: Potency index, ratio of foretinib IC50 to compound IC50 for human MCF7 cells; assay type: functional
HepG2 [17] = assay: Induction of apoptosis in human HepG2 cells assessed as live cells at 0.47 uM by Annexin V-FITC/propidium iodide staining based flow cytometry (reference value: 96.54%); assay type: functional
HepG2 [18] = assay: Induction of apoptosis in human HepG2 cells assessed as necrotic cells at 0.23 uM by Annexin V-FITC/propidium iodide staining based flow cytometry (reference value: 0.28%); assay type: functional
HepG2 [19] = assay: Induction of apoptosis in human HepG2 cells assessed as early apoptotic cells at 0.47 uM by Annexin V-FITC/propidium iodide staining based flow cytometry (reference value: 1.11%); assay type: functional
[20] = target: Mast/stem cell growth factor receptor Kit (Homo sapiens, UniProt P10721); assay: Inhibition of c-Kit (unknown origin) using FAM-labeled peptide substrate after 10 mins by mobility shift assay
Chain of Mast/stem cell growth factor receptor Kit (P10721 whole entry): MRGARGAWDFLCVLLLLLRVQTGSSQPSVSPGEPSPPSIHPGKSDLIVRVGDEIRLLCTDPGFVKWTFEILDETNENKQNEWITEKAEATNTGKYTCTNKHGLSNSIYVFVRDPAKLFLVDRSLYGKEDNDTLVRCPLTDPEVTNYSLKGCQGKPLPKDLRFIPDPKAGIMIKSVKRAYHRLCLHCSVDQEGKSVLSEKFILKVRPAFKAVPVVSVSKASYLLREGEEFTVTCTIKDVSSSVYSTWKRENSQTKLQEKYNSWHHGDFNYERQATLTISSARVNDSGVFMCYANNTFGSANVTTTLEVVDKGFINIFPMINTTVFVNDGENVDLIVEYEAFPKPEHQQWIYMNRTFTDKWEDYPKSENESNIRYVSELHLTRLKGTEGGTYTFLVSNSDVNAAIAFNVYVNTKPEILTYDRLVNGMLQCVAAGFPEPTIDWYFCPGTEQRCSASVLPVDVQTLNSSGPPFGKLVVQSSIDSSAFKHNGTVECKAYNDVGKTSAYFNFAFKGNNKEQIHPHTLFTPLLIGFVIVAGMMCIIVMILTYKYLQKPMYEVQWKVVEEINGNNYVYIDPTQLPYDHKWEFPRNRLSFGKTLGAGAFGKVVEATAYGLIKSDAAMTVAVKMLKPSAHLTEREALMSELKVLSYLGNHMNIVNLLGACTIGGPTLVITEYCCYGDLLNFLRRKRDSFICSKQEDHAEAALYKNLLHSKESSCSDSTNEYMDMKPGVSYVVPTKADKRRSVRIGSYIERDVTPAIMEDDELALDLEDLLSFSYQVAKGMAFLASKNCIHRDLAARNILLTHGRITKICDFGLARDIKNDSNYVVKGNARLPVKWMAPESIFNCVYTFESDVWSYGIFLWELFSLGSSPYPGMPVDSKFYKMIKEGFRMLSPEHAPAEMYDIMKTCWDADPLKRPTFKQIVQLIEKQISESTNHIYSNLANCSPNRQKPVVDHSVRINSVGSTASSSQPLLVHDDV

HepG2 [21] = assay: Induction of apoptosis in human HepG2 cells by Annexin V-FITC/propidium iodide staining based flow cytometry; assay type: functional, cell-based
HepG2 [22] = assay: Induction of apoptosis in human HepG2 cells assessed as early apoptotic cells at 0.23 uM by Annexin V-FITC/propidium iodide staining based flow cytometry (reference value: 1.11%); assay type: functional
HepG2 [23] = assay: Induction of apoptosis in human HepG2 cells assessed as necrotic cells at 0.94 uM by Annexin V-FITC/propidium iodide staining based flow cytometry (reference value: 0.28%); assay type: functional
HepG2 [24] = assay: Potency index, ratio of foretinib IC50 to compound IC50 for human HepG2 cells; assay type: functional

- pIC50 (HepG2 [3]): 6.33
- pIC50 [4]: 7.72
- pIC50 (MCF7 [6]): 6.13
- pIC50 [8]: 6.35
- pIC50 [9]: 5.16
- pIC50 [10]: 6.02
- pIC50 [20]: 5.43
SMILES: Cc1cc(=O)n(-c2ccc(F)cc2)nc1C(=O)Nc1ccc(Oc2ncnc3ccsc23)c(F)c1
- Activity (HepG2 [1]): 10.3%
- Activity (HepG2 [2]): Active
- Activity (HepG2 [5]): 84.11%
- Activity (HepG2 [7]): 62.8%
- Activity (HepG2 [11]): 1.25%
- pIC50 (A549): 6.24
- Activity (HepG2 [12]): 21%
- Activity (HepG2 [13]): 13.9%
- Activity (HepG2 [14]): 6.54%
- Activity (HepG2 [15]): Active
- Ratio IC50 (MCF7 [16]): 3.73 - 5.39
- Activity (HepG2 [17]): 72.36%
- Activity (HepG2 [18]): 1.28%
- Activity (HepG2 [19]): 16.09%
- Activity (HepG2 [21]): Dose-dependent effect
- Activity (HepG2 [22]): 8.08%
- Activity (HepG2 [23]): 2.31%
- Ratio IC50 (HepG2 [24]): 3.73 - 5.39
